Earlier results in paper PMC3184248 (Angewandte Chemie (International ed. in English), 2011).

What was measured:
[1] = 1.5T, 37 °C
[2] = 1.5T, 37 °C; remark: listed apart in the source

relaxivity in plasma [1]: 4.1 mM⁻¹ s⁻¹ | relaxivity in buffer [2]: 3.3 mM⁻¹ s⁻¹
Substance: GdDTPA
